Test results as given in patent publication EP0041644B1 (priority 1980, dated 1981).

Experiments:
L1210 Leukemia [1] = experiment: L1210 Leukemia - Test 2; type: in vivo, mice
B16 Melanoma = B16 Melanoma - Test 2 (ip tumor brei); type: in vivo, mice; details: QD +9
Lewis Lung Carcinoma = Lewis Lung Carcinoma - Test 1 (ip, delayed therapy); type: in vivo, mice
L1210 Leukemia [2] = experiment: L1210 Leukemia - Test 1 (survival of tumor-bearing mice); type: in vivo; details: for Survivors Day 5(30): qd 1→9, in saline

## N.N.[Cl][Pt][Cl] [Cis-DDP, cis-diammine dichloroplatinum (II)]
L1210 Leukemia [1]; 10 mg/kg/inj iv, d.1
  Average Weight Change: -3.9 g
  Effect MST % T/C: 143 % T/C
  MST Days: 10.0 days
  Survivors Day 5(30): 6/6
L1210 Leukemia [1]; iv, multi-dose regimen
  maximum T/C: 179%
L1210 Leukemia [1]; multi-dose therapy ip (qd 1→9)
  maximum T/C: 207-214%
L1210 Leukemia [1]; single ip doses, ip L1210
  maximum T/C: 214%
B16 Melanoma; 0.4 mg/kg/day ip
  Average Weight Change: -2.0 g
  Effect MST % T/C: 121 % T/C
  MST Days: 25.0 days
  Survivors Day 10 (60): 8/10
B16 Melanoma; 0.8 mg/kg/day ip
  Average Weight Change: -1.5 g
  Effect MST % T/C: 139 % T/C
  MST Days: 38.5 days
  Survivors Day 10 (60): 10/10
B16 Melanoma; 1.6 mg/kg/day ip
  Average Weight Change: -2.7 g
  Effect MST % T/C: 173 % T/C
  MST Days: 35.5 days
  Survivors Day 10 (60): 10/10
Lewis Lung Carcinoma; 0.4 mg/kg/inj ip, qd 5→13
  Av. Wt. Change,g Day 9: -0.4 g
  Effect MST %TC: 124 %TC
  MST Days: 15.5 days
  Survivors Day 9(48): 6/6
Lewis Lung Carcinoma; 0.8 mg/kg/inj ip, qd 5→13
  Av. Wt. Change,g Day 9: -0.6 g
  Effect MST %TC: 136 %TC
  MST Days: 17.0 days
  Survivors Day 9(48): 5/6
Lewis Lung Carcinoma; 1.6 mg/kg/inj ip, qd 5→13
  Av. Wt. Change,g Day 9: -1.8 g
  Effect MST %TC: 184 %TC
  MST Days: 23.0 days
  Survivors Day 9(48): 6/6
Lewis Lung Carcinoma; 2 mg/kg/inj ip, d. 5, 9&13
  Av. Wt. Change,g Day 9: +0.8 g
  Effect MST %TC: 152 %TC
  MST Days: 19.0 days
  Survivors Day 9(48): 6/6
Lewis Lung Carcinoma; 2 mg/kg/inj iv, d. 5,9&13
  Av. Wt. Change,g Day 9: +0.6 g
  Effect MST %TC: 104 %TC
  MST Days: 13.0 days
  Survivors Day 9(48): 6/6
Lewis Lung Carcinoma; 2.4 mg/kg/inj ip, qd 5→13
  Av. Wt. Change,g Day 9: -2.4 g
  Effect MST %TC: 212 %TC
  MST Days: 26.5 days
  Survivors Day 9(48): 6/6
Lewis Lung Carcinoma; 4 mg/kg/inj ip, d. 5, 9&13
  Av. Wt. Change,g Day 9: -0.3 g
  Effect MST %TC: 168 %TC
  MST Days: 21.0 days
  Survivors Day 9(48): 6/6
Lewis Lung Carcinoma; 4 mg/kg/inj iv, d. 5,9&13
  Av. Wt. Change,g Day 9: -0.7 g
  Effect MST %TC: 120 %TC
  MST Days: 15.0 days
  Survivors Day 9(48): 6/6
Lewis Lung Carcinoma; 6 mg/kg/inj ip, d. 5, 9&13
  Av. Wt. Change,g Day 9: -0.8 g
  Effect MST %TC: 220 %TC
  MST Days: 27.5 days
  Survivors Day 9(48): 6/6
Lewis Lung Carcinoma; 6 mg/kg/inj iv, d. 5,9&13
  Av. Wt. Change,g Day 9: -1.1 g
  Effect MST %TC: 108 %TC
  MST Days: 13.5 days
  Survivors Day 9(48): 6/6
Lewis Lung Carcinoma; 8 mg/kg/inj ip, d. 5, 9&13
  Av. Wt. Change,g Day 9: -2.7 g
  Effect MST %TC: 128 %TC
  MST Days: 16.0 days
  Survivors Day 9(48): 6/6
Lewis Lung Carcinoma; 8 mg/kg/inj iv, d. 5,9&13
  Av. Wt. Change,g Day 9: -0.7 g
  Effect MST %TC: 112 %TC
  MST Days: 14.0 days
  Survivors Day 9(48): 6/6
Lewis Lung Carcinoma; given ip, therapy from day 5
  maximum T/C: 212-220%
Lewis Lung Carcinoma; given iv, therapy from day 5
  T/C: inactive
L1210 Leukemia [2]; 0.5 mg/kg/day ip
  Survivors Day 5(30): 6/6
L1210 Leukemia [2]; 2 mg/kg/day ip
  Survivors Day 5(30): 6/6
L1210 Leukemia [2]; 6 mg/kg/day ip, d. 1 only, in saline
  Average Weight Change: −2.8
L1210 Leukemia [2]; 8 mg/kg/day ip, d. 1 only, in saline
  Average Weight Change: −4.1
L1210 Leukemia [2]; 10 mg/kg/day ip, d. 1 only, in saline
  Effect MST % T/C: 207 % T/C
